Active and inactive are the calls of the source. No cut-off for these calls is given here.
Tests used:
[1] = test system: Serum; assay: Antiinflammatory activity in bovine serum assessed as denaturation of albumin at 1 mM after 10 mins by spectrophotometry; type: functional; settings: Bos taurus
[2] = test system: Rattus norvegicus; assay: Antiinflammatory activity in rat assessed as inhibition of carrageenan-induced hind paw edema at 100 mg/kg, po measured after 3 hrs of carrageenan challenge; type: functional
[3] = target: Dipeptidyl peptidase 4 (Homo sapiens) (UniProt P27487); assay: Inhibition of DPP4 at 500 ug/ml after 30 mins by spectrophotometry
[4] = test system: Serum; assay: Antiinflammatory activity in bovine serum assessed as denaturation of albumin at 0.25 mM after 10 mins by spectrophotometry; type: functional; settings: Bos taurus
[5] = test system: Serum; assay: Antiinflammatory activity in bovine serum assessed as denaturation of albumin at 0.01 mM after 10 mins by spectrophotometry; type: functional; settings: Bos taurus
[6] = test system: Serum; assay: Antiinflammatory activity in bovine serum assessed as denaturation of albumin at 5 mM after 10 mins by spectrophotometry; type: functional; settings: Bos taurus
[7] = test system: Rattus norvegicus; assay: Antiinflammatory activity in rat assessed as inhibition of complete Freund's adjuvant-induced paw swelling at 5 mg/kg, po administered on day 21 post induction of inflammation measured on day 35; type: functional
[8] = test system: Rattus norvegicus; assay: Antiinflammatory activity in rat assessed as inhibition of complete Freund's adjuvant-induced paw swelling at 100 mg/kg, po administered on day 21 post induction of inflammation measured on day 35; type: functional
[9] = test system: Mus musculus; assay: Antihyperglycemic activity in mouse assessed as decrease in blood glucose AUC level at 100 mg/kg, po administered before glucose challenge measured after 120 mins post glucose infusion; type: functional, organism-based; parameters: dose 100 mg/kg
[10] = test system: Mus musculus; assay: Antihyperglycemic activity in mouse assessed as decrease in blood glucose AUC level at 100 mg/kg, ip administered before glucose challenge measured after 120 mins post glucose infusion; type: functional; settings: 2 h, route intraperitoneal

Chain of Dipeptidyl peptidase 4 (Homo sapiens) (P27487 whole entry, looked up): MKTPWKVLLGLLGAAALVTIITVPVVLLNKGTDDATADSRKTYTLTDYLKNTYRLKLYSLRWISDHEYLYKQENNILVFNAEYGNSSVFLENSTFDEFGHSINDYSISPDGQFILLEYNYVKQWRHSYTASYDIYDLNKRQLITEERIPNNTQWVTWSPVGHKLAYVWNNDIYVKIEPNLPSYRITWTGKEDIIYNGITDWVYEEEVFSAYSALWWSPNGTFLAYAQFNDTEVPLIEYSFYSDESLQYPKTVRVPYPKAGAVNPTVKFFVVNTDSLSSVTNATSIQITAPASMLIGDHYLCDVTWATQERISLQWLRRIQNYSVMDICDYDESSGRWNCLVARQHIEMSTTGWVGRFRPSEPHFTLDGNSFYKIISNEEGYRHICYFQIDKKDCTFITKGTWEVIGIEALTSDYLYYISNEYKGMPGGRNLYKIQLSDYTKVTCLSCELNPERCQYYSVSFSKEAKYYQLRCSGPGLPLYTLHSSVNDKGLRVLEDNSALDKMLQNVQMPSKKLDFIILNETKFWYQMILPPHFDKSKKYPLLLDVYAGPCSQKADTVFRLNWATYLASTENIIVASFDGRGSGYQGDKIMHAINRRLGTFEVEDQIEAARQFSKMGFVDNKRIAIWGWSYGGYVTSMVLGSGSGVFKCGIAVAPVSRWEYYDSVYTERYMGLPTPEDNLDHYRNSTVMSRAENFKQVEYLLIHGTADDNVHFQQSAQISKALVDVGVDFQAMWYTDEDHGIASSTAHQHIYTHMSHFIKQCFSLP

CCCCCCCCc1nc2ccc(C)cc2nc1CCCCCCCC(=O)O
inhibition at 1000 µM [1]: 37.4% | inhibition in vivo at 100 mg/kg [2]: 12.5% | inhibition [3]: 88.1%

CCCCCCCCC1=NC(=O)CC(=O)N=C1CCCCCCCC(=O)O
inhibition at 250 µM [4]: 37% | inhibition in vivo at 100 mg/kg [2]: 1.74% | inhibition [3]: 12.3%

CCCCCCCCC1=NC(=S)N=C1CCCCCCCC(=O)NN
inhibition at 10 µM [5]: 37.2%

CCCCCCCCC1OC(C)(C)OC1CCCCCCCC(=O)OCC (stereo unspecified)
inhibition at 5000 µM [6]: 46.4%

CCCCCCCCC1=NC(=O)N=C1CCCCCCCC(=O)NN1C(=O)CSC1c1ccc(Cl)cc1 (stereo unspecified)
inhibition in vivo at 100 mg/kg [2]: 0%

CCCCCCCCC1=NC(=S)N=C1CCCCCCCC(=O)NN1C(=O)CSC1c1ccc(Cl)cc1 (stereo unspecified)
inhibition in vivo at 100 mg/kg [2]: -21.7%

O=C(O)Cc1ccccc1Nc1c(Cl)cccc1Cl [DICLOFENAC]
inhibition at 5000 µM [6]: 56.3% | inhibition in vivo at 100 mg/kg [2]: 38.2% | inhibition in vivo at 5 mg/kg [7]: 35.3%

CCCCCCCCC1=NC(=O)N=C1CCCCCCCC(=O)OCCO[N+](=O)[O-]
inhibition at 1000 µM [1]: 25.1% | inhibition in vivo at 100 mg/kg [2]: -22.8% | inhibition [3]: -6.22%

CCCCCCCCC1=NC(=O)N=C1CCCCCCCC(=O)NN
inhibition at 1000 µM [1]: 31.4%

CCCCCCCCC1=NC(=S)N=C1CCCCCCCC(=O)O
inhibition at 1000 µM [1]: 78.3% | inhibition in vivo at 100 mg/kg [2]: -7.17%

CCCCCCCCc1nc2ccccc2nc1CCCCCCCC(=O)O
inhibition at 1000 µM [1]: 75.7% | inhibition in vivo at 100 mg/kg [2]: 34.4% | inhibition [3]: 73.6%

CCCCCCCCc1nc2ccccc2nc1CCCCCCCC(=O)NN
inhibition at 1000 µM [1]: 3.72%

CCCCCCCCc1nc(=S)[nH]nc1CCCCCCCC(=O)O
inhibition at 250 µM [4]: 14% | inhibition in vivo at 100 mg/kg [2]: -3.82% | inhibition [3]: 58.3%

CCCCCCCCC1=NC(=S)N=C1CCCCCCCC(=O)OCCO[N+](=O)[O-]
inhibition at 10 µM [5]: 38.1% | inhibition in vivo at 100 mg/kg [2]: -22.4% | inhibition [3]: 23.3%

CCCCCCCCC1=NC(=O)N=C1CCCCCCCC(=O)O
inhibition at 1000 µM [1]: 76.7% | inhibition in vivo at 100 mg/kg [2]: -12.9%

CCCCCCC(CC1OC(C)(C)OC1CCCCCCCC(=O)OC)OC(C)=O (stereo unspecified)
inhibition at 5000 µM [6]: 48.5%

CCCCCCCCc1nc2ccc([N+](=O)[O-])cc2nc1CCCCCCCC(=O)O
inhibition at 1000 µM [1]: 36.9% | inhibition in vivo at 100 mg/kg [2]: 39.6% | inhibition [3]: 64% | inhibition in vivo at 100 mg/kg [8]: 53.3% | inhibition [9]: inactive | inhibition in vivo at 100 mg/kg [10]: 45.1%

CCCCCCCCc1nonc1CCCCCCCC(=O)O
inhibition at 5000 µM [6]: 25.4% | inhibition [3]: 2.2%

CCCCCCCCc1nc2ccc(Cl)cc2nc1CCCCCCCC(=O)O
inhibition at 1000 µM [1]: 57.1% | inhibition in vivo at 100 mg/kg [2]: 26.7% | inhibition [3]: 45.5% | inhibition in vivo at 100 mg/kg [8]: 44.2% | inhibition [9]: inactive | inhibition in vivo at 100 mg/kg [10]: 36.7%
